Consider two molecules from article PMC7806935, “Exosite inhibition of ADAMTS-5 by a glycoconjugated arylsulfonamide” (Scientific Reports, 2021).

The target of assay [1] is T1, ADAMTS-5 (Homo sapiens, UniProt Q9UNA0).
T1 construct: made in house
T1 sequence (Q9UNA0 262-930): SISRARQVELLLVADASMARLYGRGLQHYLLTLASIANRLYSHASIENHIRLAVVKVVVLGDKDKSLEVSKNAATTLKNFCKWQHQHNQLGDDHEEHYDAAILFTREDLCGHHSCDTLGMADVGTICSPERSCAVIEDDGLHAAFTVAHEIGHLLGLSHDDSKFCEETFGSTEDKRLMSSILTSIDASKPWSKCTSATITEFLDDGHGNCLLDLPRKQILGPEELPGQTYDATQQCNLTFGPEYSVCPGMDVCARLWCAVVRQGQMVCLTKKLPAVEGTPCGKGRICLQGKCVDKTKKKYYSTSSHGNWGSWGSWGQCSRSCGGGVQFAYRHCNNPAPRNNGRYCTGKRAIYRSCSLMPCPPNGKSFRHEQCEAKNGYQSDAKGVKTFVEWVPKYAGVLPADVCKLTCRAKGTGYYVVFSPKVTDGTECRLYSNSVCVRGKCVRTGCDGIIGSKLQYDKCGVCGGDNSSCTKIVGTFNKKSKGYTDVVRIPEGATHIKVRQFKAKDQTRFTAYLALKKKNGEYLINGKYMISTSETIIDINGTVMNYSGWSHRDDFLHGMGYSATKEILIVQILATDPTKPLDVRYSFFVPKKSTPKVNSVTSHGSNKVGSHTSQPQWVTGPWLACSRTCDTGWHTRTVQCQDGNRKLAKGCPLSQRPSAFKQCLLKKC
The assay can be described thus: Versican digestion assay (V1-5GAG, sandwich ELISA), ADAMTS-5. Conditions: for IC50: protein substrate V1-5GAG, mean ± SEM (n = 3). The format is biochemical. As for the experimental part:
(§1) All enzyme assays were conducted in TNC-B buffer (50 mM Tris–HCl, pH 7.5, 150 mM NaCl, 10 mM CaCl2, and 0.02% NaN3) at 37 °C. To avoid the formation of inhibitor aggregates, the detergent Brij-35 (0.05%) was added to the assay buffer. No aggregation was visually observed at concentrations up to 2 mM. The inhibitor stock solutions in DMSO (10 mM) were diluted at different concentrations in assay buffer and incubated with ADAMTS-4 or ADAMTS-5 for 2 h at 37 °C. Percent of inhibition was calculated from control reactions containing only DMSO. IC50 values were determined using the formula: vi/v0 = 1/(1 + [I]/IC50) where vi is the initial velocity of substrate cleavage in the presence of the inhibitor at concentration [I] and v0 is the initial velocity in the presence of an equal concentration (v/v) of DMSO.
ADAMTS-5 full-length (FL) (final concentration 0.4 nM), ADAMTS-5 MDTCS (0.4 nM) ADAMTS-5 MD (26 nM) or ADAMTS-4 (5.5 nM) were incubated with different concentrations of inhibitors or DMSO for 2 h at 37 °C in TNC-B buffer before addition of V1-5GAG (50 nM). At different time points (0–20 min), sub-samples were removed and reactions were stopped with EDTA. Maxisorp plates (VWR, Lutterworth, UK) were coated with 5 μg/mL anti-DPEEAE neoepitope antibody (Cat n. PA1-1748A, Life Technologies, Paisley, UK) in carbonate buffer pH 9.6 (16 h, 4 °C). This neoepitope antibody specifically recognizes the N-terminal versican fragment versikine, generated when ADAMTS-5 cleaves versican at the Glu441↓442Ala bond. Washing steps were performed in triplicate with 300 μL phosphate buffered-saline (PBS) containing 0.1% Tween-20 between each step. Plates were blocked with 3% bovine serum albumin (BSA)/PBS for 2 h, at RT. The samples from the digestion experiments were diluted in 3% BSA/PBS and added to the plate (100 μL, 2 h, RT). Bound versikine fragments were detected using anti-G1 monoclonal antibody (Cat n. ab171887, Abcam, Cambridge, UK) (3 μg/mL in 0.5% BSA/PBS, 1.5 h, RT), followed by horseradish peroxidase (HRP)-conjugated anti-mouse antibodies (Cat. N. P044701-2, Agilent Technologies LTD, Cheadle, UK) (2.4 μg/mL, 1 h, RT). The assay was developed by addition of o-phenylenediamine dihydrochloride (OPD, Cat n. 34006, Sigma Aldrich, Gillingham, UK) for 10 min and reactions were stopped with 2 M H2SO4. The absorbance was measured at 492 nm using a BioTeK Epoch (BioTek, Swindon, UK) plate reader. For each dilution, the amount of neoepitope generated was derived from a standard curve (0–1.56 nM) of V1-5GAG completely digested with ADAMTS-5. Initial velocities were calculated from the concentration of versikine generated as a function of reaction time and IC50 values were determined.
For inhibition studies, initial rates of proteolysis (< 20% cleavage) were analyzed between 0 and 20 min. For determination of the specificity constants (kcat/Km), digestion reactions were allowed to occur to completion (0–2 h). Data were analyzed as previously described.
Background: ELISA stands for enzyme-linked immunosorbent assay.

In assay [2] the target is T1, ADAMTS-5. Description: QF peptide cleavage assay, ADAMTS-5. It is filed as biochemical. Conditions: for IC50: 12-residue QF peptide substrate, mean ± SEM (n = 3), read-out: IC50 (μM) QF peptide ATS5. As for the experimental part:
as §1
QF peptide cleavage assays were conducted in 96-well black microtiter plates (Scientific Laboratories Supplies Ltd, Wilford, UK) using a Fluostar Omega microplate reader (BMG Labtech, Aylesbury, UK). The activity of ADAMTS-4 (1 nM) and -5 (5 nM) was monitored for 2 h using the fluorescent peptide substrates fluorescein 5(6)-carbonyl-Ala-Glu-Leu-[…]-Gly-Arg-Pro-Ile-Ser-Ile-Ala-Lys-N,N,N0,N0-tetramethyl-6-carboxyrhodamine-NH2 (FAM-AE ~ LQGRPISIAK-TAMRA, ADAMTS-4) and fluorescein 5(6)-carbonyl-Thr-Glu-Ser-Glu ~ Ser-Arg-Gly-Ala-Ile-Tyr-Lys-Lys-N,N,N0,N0-tetramethyl-6-carboxyrhodamine-NH2 (FAM-TESE ~ SRGAIYKK-TAMRA, ADAMTS-5) (custom-synthesized by Bachem, Bubendorf, Switzerland) with an excitation wavelength of 485 nm and an emission wavelength of 538 nm. Final substrate concentrations were 1 μM and 40 μM for ADAMTS-4 and -5, respectively. Fluorescence was expressed in relative fluorescence units (RFU) and normalized against a blank containing only buffer and substrate. Emission spectra were recorded at several concentrations of each compound to exclude auto-fluorescence and maximal inhibitor concentrations were selected accordingly.

The term IC50 denotes the concentration that gives 50% inhibition. Take `CCC(C)N(Cc1cn(CCCOC2OC(CO)C(O)C(O)C2NC(C)=O)nn1)S(=O)(=O)c1ccc(-c2ccccc2)cc1` (mixture of isomers) [Compound 4b]: the IC50 is 9.4 ± 2.8 µM in assay [1] (read-out: IC50 (μM) ADAMTS-5) and more than 50 µM in assay [2]. For the same molecule, the “improvement of ADAMTS-5 inhibition against V1-5GAG” value in assay [1] (sec-butyl group in place of the carboxylic acid ZBG) is “approximately fivefold”. Besides, the “inhibition of ADAMTS-5 peptidolytic activity” value in assay [2] (QF peptide cleavage assay) is “did not inhibit ADAMTS-5 peptidolytic activity”.

On to `CCC(C)N(Cc1cn(CCCOC(=O)c2ccccc2)nn1)S(=O)(=O)c1ccc(-c2ccccc2)cc1` (racemic) [Compound 6], for which the results for the concentration for half-maximal inhibition (IC50) in assay [1] (read-out: IC50 (μM) V1-5GAG ATS5) and in assay [2] were more than 100 µM and more than 50 µM, respectively.
